Laboratory results from paper PMC11790914, “Chemogenomics for steroid hormone receptors (NR3)” (Communications Chemistry, 2025).
Values joined by “and” are separate entries in the source; they are usually repeats but may differ in a detail not shown here. Identical values can stand only once.

Tests used:
CDK2 = biological target: T1, CDK2 (Homo sapiens, UniProt P24941); experiment: Liability panel screening by DSF: CDK2; format: binding; settings: read-out: Mean ΔTM CDK2
T1 construct: made in house
Procedure, shortened: (§1)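 Thermal shift: in-house recombinant protein at 2 µM in 10 mM HEPES pH 7.5 with 500 mM NaCl, SYPRO Orange 1:1000, heated at 3 °C/min to 85 °C in technical duplicates. Tm is the Boltzmann inflection point, reported as ∆Tm in K.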

HEK293T cells [1] = experiment: Cytotoxicity: growth-rate (change in confluence over 24 h); settings: 1 µM, normalized to 0.1% DMSO control, single replicates (n=1...)
Procedure: Cells were incubated with the test compounds at the indicated concentrations solubilized with 0.1% DMSO for 24 h. Growth-rate was determined based on the change in confluence over 24 h normalized to the change in confluence of cells treated with the 0.1% DMSO control (n = 10). Metabolic activity was determined with a water-soluble tetrazolium-8 (WST-8) assay (n = 8) after 24 h treatment. Apoptotic cells were detected with a fluorogenic DNA dye coupled to the caspase-3/7 recognition sequence (DEVD) after 24 h treatment and the apoptotic cell count was normalized to 0.1% DMSO treated cells (n = 6).
HEK293T cells (German Collection of Microorganisms and Cell Culture GmbH, DSMZ; #ACC305) were cultured in DMEM high glucose, supplemented with 10% fetal calf serum (FCS), sodium pyruvate (1 mM), penicillin (100 µ/mL) and streptomycin (100 µg/mL) at 37 °C and 5% (v/v) CO2, and seeded in pre-coated (10 µg/mL collagen G solution (Merck KgaA; #L7213) for 30 min at 37 °C) 96-well plates (2 × 10^5 cells per well). After 24 h, the cells were treated with the respective NR3 CG compound candidate at the recommended concentration, bexarotene (100 µM) or doxorubicin (30 µM) as positive controls in DMEM high glucose supplemented with 0.1% FCS, penicillin (100 µ/mL), streptomycin (100 µg/mL) and 0.1% DMSO, or 0.1% DMSO alone as an untreated control. Each sample was prepared in at least four biologically independent replicates. […] Thereafter, the medium was aspirated and the cells were incubated for 3 h with 90 µL DMEM high glucose supplemented with 0.2% FCS, penicillin (100 µ/mL) and streptomycin (100 µg/mL) and additionally containing 10 µL Cell Counting Kit 8 solution (CCK-8; MedChemExpress, Monmouth Junction, New York, USA; #HY-K0301), and absorbance was measured at 1 h, 2 h and 3 h of incubation at 450 nm on a Tecan Spark Cyto to assess metabolic activity of the cells. Before drug administration, after the first medium exchange, 24 h after drug administration, and after fluorescence imaging cell confluence was assessed using the Tecan Spark Cyto, to account for changes in cell confluence due to drug administration and cell handling. Compound effects on cell confluence, apoptosis, metabolic activity and necrosis were normalized to the vehicle control of each biological replicate individually.

BRPF1 = biological target: T2, BRPF1 (Homo sapiens, UniProt P55201); experiment: Liability panel screening by DSF: BRPF1; format: binding; settings: read-out: Mean ΔTM BRPF1
T2 construct: This panel comprised ten highly ligandable kinases and bromodomains; made in house
T2 sequence (P55201 628-732 limits assumed): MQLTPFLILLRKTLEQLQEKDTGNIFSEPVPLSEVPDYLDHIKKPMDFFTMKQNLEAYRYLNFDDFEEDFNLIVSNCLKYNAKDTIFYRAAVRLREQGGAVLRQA
Procedure, shortened: as §1

BRD4 = biological target: T3, BRD4 (Homo sapiens, UniProt O60885); experiment: Liability panel screening by DSF: BRD4; format: binding; settings: read-out: Mean ΔTM BRD4
T3 construct: This panel comprised ten highly ligandable kinases and bromodomains; made in house
Procedure, shortened: as §1

GSK3B = biological target: T4, GSK3B (Homo sapiens, UniProt P49841); experiment: Liability panel screening by DSF: GSK3B; format: binding; settings: read-out: Mean ΔTM GSK3B
T4 construct: made in house

AURKA = biological target: T5, AURKA (Homo sapiens, UniProt O14965); experiment: Liability panel screening by DSF: AURKA; format: binding; settings: read-out: Mean ΔTM AURKA
T5 construct: made in house
T5 sequence (O14965 1-403): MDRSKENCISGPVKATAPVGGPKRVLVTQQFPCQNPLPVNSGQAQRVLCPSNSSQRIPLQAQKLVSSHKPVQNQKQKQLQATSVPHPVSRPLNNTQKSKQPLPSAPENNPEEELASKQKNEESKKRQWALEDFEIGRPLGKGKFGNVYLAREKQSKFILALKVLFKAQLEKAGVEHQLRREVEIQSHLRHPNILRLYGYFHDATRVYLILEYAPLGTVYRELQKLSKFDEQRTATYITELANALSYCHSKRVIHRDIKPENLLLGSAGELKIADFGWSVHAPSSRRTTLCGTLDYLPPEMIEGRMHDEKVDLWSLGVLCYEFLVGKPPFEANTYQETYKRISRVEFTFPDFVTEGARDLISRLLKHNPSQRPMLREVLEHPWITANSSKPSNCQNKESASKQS
Procedure, shortened: as §1

NR3C1 (GR) = settings: (lit.); ref Supplementary Table 1; read-out: Potency [nM] EC50, NR3C1 (GR); cited from earlier work
[2] = test system: ATF6 activity in Hela ATF6 reporter cells; experiment: Endoplasmic reticulum stress assay (ATF6 Renilla luciferase reporter, tunicamycin); format: cell-based; settings: Homo sapiens, HeLa, 1 µM, single replicates n=1 to n=5; read-out: ER stress [rel. ATF6 activity]
Procedure, shortened: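 HeLa ATF6 Renilla reporter cells were pretreated 4 h with compounds in 0.1% DMSO, then stimulated with tunicamycin (100 ng/mL) for 18 h. Renilla luminescence (DualGlo) was normalized to 0.1% DMSO control; five independent experiments.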

NR3C2 (MR) = settings: (lit.); ref Supplementary Table 1; read-out: Potency [nM] EC50, NR3C2 (MR); cited from earlier work
HEK293T cells [3] = experiment: Cytotoxicity: apoptosis induction (caspase-3/7 DEVD fluorogenic DNA dye); settings: 1 µM; HEK293T, 24 h; apoptotic cell count normalized to 0.1% DMSO; single replicates
NR3C3 (PR) = settings: (lit.); ref Supplementary Table 1; read-out: Potency [nM] EC50, NR3C3 (PR); cited from earlier work
CSNK1D = biological target: T6, CSNK1D (Homo sapiens, UniProt P48730); experiment: Liability panel screening by DSF: CSNK1D; format: binding; settings: read-out: Mean ΔTM CSNK1D
T6 construct: made in house
Procedure, shortened: as §1

MAPK1 = biological target: T7, MAPK1 (Homo sapiens, UniProt P28482); experiment: Liability panel screening by DSF: MAPK1; format: binding; settings: read-out: Mean ΔTM MAPK1
T7 construct: made in house
Procedure, shortened: as §1

FGFR3 = biological target: T8, FGFR3 (Homo sapiens, UniProt P22607); experiment: Liability panel screening by DSF: FGFR3; format: binding; settings: read-out: Mean ΔTM FGFR3
T8 construct: made in house
Procedure, shortened: as §1

TRIM24 = biological target: T9, TRIM24 (Homo sapiens, UniProt O15164); experiment: Liability panel screening by DSF: TRIM24; format: binding; settings: read-out: Mean ΔTM TRIM24
T9 construct: This panel comprised ten highly ligandable kinases and bromodomains; made in house
T9 sequence (O15164 899-1004 limits assumed): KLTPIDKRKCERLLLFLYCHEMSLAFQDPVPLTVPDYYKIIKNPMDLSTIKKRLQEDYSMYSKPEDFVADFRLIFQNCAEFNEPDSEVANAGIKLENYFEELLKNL
Procedure, shortened: as §1

NR3C4 (AR) = settings: read-out: Potency [nM] EC50, NR3C4 (AR); cited from earlier work
ABL1 = biological target: T10, ABL1 (Homo sapiens, UniProt P00519); experiment: Liability panel screening by DSF: ABL1; format: binding; settings: read-out: Mean ΔTM ABL1
T10 construct: made in house
Procedure, shortened: as §1

HEK293T cells [4] = experiment: Cytotoxicity: necrosis induction (red fluorescent dye for permeable plasma membranes); format: cell-based; settings: 1 µM, 24 h, necrotic cell count normalized to 0.1% DMSO, single replicates;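 further: compounds applied in DMEM high glucose with 0.1% FCS and 0.1% DMSO, necrotic HEK293T cells counted by red staining of cells whose plasma membranes had become permeable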
[5] = test system: NF-κB activity in HEK293 NF-κB reporter cells; experiment: NF-kB activity assay (GFP reporter, ionomycin/PMA); format: cell-based; settings: n=3
Procedure, shortened: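 HEK293 NF-κB GFP reporter cells given compound in 0.1% DMSO for 4 h, then stimulated with ionomycin 100 ng/mL plus PMA 10 ng/mL. Imaged every 90 min over 24 h; GFP-positive cell count normalized to confluence, three independent biological replicates.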

HEK293T cells [6] = experiment: Cytotoxicity: metabolic activity (WST-8 / CCK-8 assay); settings: 1 µM; HEK293T, 24 h; WST-8; normalized to 0.1% DMSO; single replicates

T4 sequence (P49841 whole entry, species assumed): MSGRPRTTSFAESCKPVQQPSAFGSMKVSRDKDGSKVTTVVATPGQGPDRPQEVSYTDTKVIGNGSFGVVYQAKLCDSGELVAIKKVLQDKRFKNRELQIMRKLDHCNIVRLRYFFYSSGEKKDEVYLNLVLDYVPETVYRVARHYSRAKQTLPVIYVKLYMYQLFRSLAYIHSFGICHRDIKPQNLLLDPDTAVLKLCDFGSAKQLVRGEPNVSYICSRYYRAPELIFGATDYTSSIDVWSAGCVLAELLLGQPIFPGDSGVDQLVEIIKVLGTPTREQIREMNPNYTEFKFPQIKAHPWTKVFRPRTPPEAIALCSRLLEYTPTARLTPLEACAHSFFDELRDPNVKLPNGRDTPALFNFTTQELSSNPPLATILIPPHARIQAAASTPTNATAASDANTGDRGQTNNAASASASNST
T8 sequence (P22607 23-806, species assumed): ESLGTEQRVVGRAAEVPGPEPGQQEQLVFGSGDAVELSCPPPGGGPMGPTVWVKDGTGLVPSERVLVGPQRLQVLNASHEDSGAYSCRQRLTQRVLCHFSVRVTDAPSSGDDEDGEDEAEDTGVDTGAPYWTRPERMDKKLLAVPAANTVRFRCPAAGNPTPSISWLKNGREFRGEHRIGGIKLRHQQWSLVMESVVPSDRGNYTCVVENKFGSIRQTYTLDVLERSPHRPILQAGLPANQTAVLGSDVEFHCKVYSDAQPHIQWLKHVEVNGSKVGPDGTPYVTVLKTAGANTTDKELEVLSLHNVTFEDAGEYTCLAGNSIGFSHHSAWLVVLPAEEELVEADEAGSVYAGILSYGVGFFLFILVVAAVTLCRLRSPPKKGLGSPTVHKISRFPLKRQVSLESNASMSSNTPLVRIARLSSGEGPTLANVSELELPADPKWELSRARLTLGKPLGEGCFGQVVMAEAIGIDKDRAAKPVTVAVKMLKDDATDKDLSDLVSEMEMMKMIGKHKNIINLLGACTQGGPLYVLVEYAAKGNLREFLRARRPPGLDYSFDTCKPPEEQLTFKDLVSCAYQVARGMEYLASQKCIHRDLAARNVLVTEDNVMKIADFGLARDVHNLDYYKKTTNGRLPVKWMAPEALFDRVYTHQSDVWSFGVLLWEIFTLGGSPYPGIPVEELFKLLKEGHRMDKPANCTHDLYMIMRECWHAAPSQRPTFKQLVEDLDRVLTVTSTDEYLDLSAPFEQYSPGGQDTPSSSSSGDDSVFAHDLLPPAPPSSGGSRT
T7 sequence (P28482 whole entry, species assumed): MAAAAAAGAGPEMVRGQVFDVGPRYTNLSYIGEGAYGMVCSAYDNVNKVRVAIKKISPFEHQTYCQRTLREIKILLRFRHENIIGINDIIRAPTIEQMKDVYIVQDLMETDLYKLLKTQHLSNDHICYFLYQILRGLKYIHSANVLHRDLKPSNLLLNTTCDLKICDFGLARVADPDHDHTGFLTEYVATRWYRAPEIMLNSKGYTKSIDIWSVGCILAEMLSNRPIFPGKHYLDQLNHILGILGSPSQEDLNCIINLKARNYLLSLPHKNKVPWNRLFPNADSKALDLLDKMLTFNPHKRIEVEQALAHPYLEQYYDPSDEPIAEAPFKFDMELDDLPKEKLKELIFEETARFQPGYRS
T6 sequence (P48730 whole entry, species assumed): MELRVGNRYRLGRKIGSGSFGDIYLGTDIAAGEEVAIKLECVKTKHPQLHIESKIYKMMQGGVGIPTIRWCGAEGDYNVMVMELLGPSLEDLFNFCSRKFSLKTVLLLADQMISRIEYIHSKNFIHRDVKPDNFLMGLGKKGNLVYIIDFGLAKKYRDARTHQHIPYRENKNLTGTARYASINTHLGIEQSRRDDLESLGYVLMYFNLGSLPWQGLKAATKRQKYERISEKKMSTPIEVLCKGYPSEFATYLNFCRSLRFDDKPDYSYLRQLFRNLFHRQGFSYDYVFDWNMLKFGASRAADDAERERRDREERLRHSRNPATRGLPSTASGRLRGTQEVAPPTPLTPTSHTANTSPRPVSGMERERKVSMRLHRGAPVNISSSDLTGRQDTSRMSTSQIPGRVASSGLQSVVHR
T10 sequence (P00519 whole entry, species assumed): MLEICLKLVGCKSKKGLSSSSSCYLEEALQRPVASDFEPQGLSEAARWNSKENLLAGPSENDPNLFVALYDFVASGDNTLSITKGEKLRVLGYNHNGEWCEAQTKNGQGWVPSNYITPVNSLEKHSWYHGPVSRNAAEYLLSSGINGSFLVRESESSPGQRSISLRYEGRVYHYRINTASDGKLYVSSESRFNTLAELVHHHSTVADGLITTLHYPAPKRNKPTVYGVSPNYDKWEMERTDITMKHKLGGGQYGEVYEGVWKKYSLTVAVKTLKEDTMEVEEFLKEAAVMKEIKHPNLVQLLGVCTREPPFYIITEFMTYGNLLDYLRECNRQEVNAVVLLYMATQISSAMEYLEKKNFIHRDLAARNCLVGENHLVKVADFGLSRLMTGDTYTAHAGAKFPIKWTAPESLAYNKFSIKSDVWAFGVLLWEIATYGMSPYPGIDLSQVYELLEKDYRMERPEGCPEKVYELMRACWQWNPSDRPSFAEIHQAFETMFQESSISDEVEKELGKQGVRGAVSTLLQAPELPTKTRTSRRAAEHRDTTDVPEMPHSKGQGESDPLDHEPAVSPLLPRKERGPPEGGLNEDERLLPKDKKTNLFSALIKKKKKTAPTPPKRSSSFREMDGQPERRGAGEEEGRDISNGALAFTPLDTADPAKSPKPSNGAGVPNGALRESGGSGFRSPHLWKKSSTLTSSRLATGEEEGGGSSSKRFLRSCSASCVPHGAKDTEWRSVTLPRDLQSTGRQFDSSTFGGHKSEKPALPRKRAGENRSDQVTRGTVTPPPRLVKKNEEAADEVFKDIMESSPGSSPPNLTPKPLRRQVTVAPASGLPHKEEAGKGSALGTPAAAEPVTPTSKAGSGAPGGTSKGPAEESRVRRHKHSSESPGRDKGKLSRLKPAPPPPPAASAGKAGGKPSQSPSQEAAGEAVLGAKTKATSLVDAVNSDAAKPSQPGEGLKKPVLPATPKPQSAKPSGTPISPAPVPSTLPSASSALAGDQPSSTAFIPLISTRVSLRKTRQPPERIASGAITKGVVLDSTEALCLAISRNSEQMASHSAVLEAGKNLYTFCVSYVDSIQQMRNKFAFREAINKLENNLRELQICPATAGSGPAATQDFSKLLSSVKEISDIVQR

SMILES: C[C@]1(O)CC[C@H]2[C@@H]3CCC4=CC(=O)CCC4=C3C=C[C@@]21C [Methyltrienolone]
- ΔTm at 20 µM (CDK2): -0.06 °C
- Growth rate [GR] (HEK293T cells [1]): 0.54 and 2.52 and 1.01 and 1.07 and 0.85 and 1.02 and 1.00 and 1.19 and 1.25 and 1.79
- ΔTm at 20 µM (BRPF1): -1.21 °C
- ΔTm at 20 µM (BRD4): -0.94 °C
- ΔTm at 20 µM (GSK3B): -0.24 °C
- ΔTm at 20 µM (AURKA): 0.08 °C
- EC50 (NR3C1 (GR)): 10 ± 4 nM
- activity at 1 µM [2]: 100%
- EC50 (NR3C2 (MR)): 0.5 ± 0.1 nM
- Apoptosis induction [AI] (HEK293T cells [3]): 0.87 and 1.36 and 0.90 and 1.12 and 0.53 and 0.75
- EC50 (NR3C3 (PR)): 0.5 ± 0.3 nM
- ΔTm at 20 µM (CSNK1D): -0.05 °C
- ΔTm at 20 µM (MAPK1): -0.02 °C
- ΔTm at 20 µM (FGFR3): 0.15 °C
- ΔTm at 20 µM (TRIM24): -0.03 °C
- EC50 (NR3C4 (AR)): 0.01 ± 0.01 nM
- ΔTm at 20 µM (ABL1): 0.42 °C
- Necrosis induction [NI] (HEK293T cells [4]): 0.85 and 1.01 and 0.97 and 1.35
- Mean NFκB response ([5]; 1 µM, 1,5 h): 3531.33 GFP+-cells/confluence ∙ 1000
- Mean NFκB response ([5]; 1 µM, 4,5 h): 3781.33 GFP+-cells/confluence ∙ 1000
- Mean NFκB response ([5]; 1 µM, 7,5 h): 7660.67 GFP+-cells/confluence ∙ 1000
- Mean NFκB response ([5]; 1 µM, 10,5 h): 17176.00 GFP+-cells/confluence ∙ 1000
- Mean NFκB response ([5]; 1 µM, 13,5 h): 24525.33 GFP+-cells/confluence ∙ 1000
- Mean NFκB response ([5]; 1 µM, 16,6 h): 30685.33 GFP+-cells/confluence ∙ 1000
- Mean NFκB response ([5]; 1 µM, 19,5 h): 34386.67 GFP+-cells/confluence ∙ 1000
- Mean NFκB response ([5]; 1 µM, 22,5 h): 37650.00 GFP+-cells/confluence ∙ 1000
- Mean NFκB response ([5]; 1 µM, 3 h): 3552.67 GFP+-cells/confluence ∙ 1000
- Mean NFκB response ([5]; 1 µM, 6 h): 4781.67 GFP+-cells/confluence ∙ 1000
- Mean NFκB response ([5]; 1 µM, 9 h): 12656.33 GFP+-cells/confluence ∙ 1000
- Mean NFκB response ([5]; 1 µM, 12 h): 21183.67 GFP+-cells/confluence ∙ 1000
- Mean NFκB response ([5]; 1 µM, 15 h): 28114.67 GFP+-cells/confluence ∙ 1000
- Mean NFκB response ([5]; 1 µM, 18 h): 32970.33 GFP+-cells/confluence ∙ 1000
- Mean NFκB response ([5]; 1 µM, 21 h): 36266.67 GFP+-cells/confluence ∙ 1000
- Mean NFκB response ([5]; 1 µM, 24 h): 38486.67 GFP+-cells/confluence ∙ 1000
- Metabolic activity [MA] (HEK293T cells [6]): 0.98 and 1.02 and 0.97 (2×) and 1.07 and 1.05 and 1.13 and 1.10
